Reference: patent publication US5138101A, “Recovery of high-boiling aldehydes from rhodium-catalyzed hydroformylation processes” (Eastman Kodak Company, priority 1991, dated 1992)

Columns and labels:
[1] = Partitioning (partition coefficient, Kp) of hydroformylation products and hydroformylation solvent between hydroformylation solvent phase and alkanol/water extraction solution phase; type: physicochemical
Description: The extraction process described herein is the equilibration of a particular compound dissolving into two separate liquid phases. The effectiveness of the present extraction process may be measured in terms of the partition coefficient (Kp) for a compound "X" which is defined as: [formula] […] High Kp values give high extraction efficiencies requiring lower amounts of extraction solution. Similarly, it is desirable that the Kp of the hydroformylation solvent be a low value. This simplifies purification of the aldehyde products down-stream. In the hydroformylation of diolefins to dialdehydes, it also is desirable to have Kp values for the dialdehyde products larger than the Kp values of the intermediate mono-aldehyde mono-olefin (formyl-olefin) intermediate formed in the hydroformylation reaction. This permits recycling of the formyl-olefin to the hydroformylation reactor in the hydroformylation solvent for further reaction to the desired dialdehyde product, while selectively extracting the desired di-aldehyde product. Likewise, for the same reason, it is desirable to have low Kp values for the olefin or polyolefin feedstocks used in the process.
The extraction examples were carried out in a 300 mL, 3-neck, glass flask equipped with a Teflon magnetic stir bar, a thermometer to measure the temperature of the liquid, a septum for the use of a syringe, a heating mantle and a nitrogen bubbler blanket for the system. […] […] The mixture was stirred at 25° C. for 30 minutes to reach equilibrium, stirring was stopped, and the mixture was allowed to separate into 2 layers (phases) over a 30 minute period of time. […] Samples of each phase were taken with a syringe and chromatographed on a Hewlett Packard Model 5730 capillary FID gas chromatograph. The instrument used a 30 meter DB-1 column (Supelco.) with a programming rate of a 4 minute hold at 70° C. with a programming rate of 8° C./minute to 250° C. The calculations for the weights of hydroformylation products in each phase were carried out using standard procedures using the dodecane as an internal standard for the catalyst layer and methanol as the internal standard for the aqueous layer. The initial volumes of the two phases were used for estimation of the volumes of the two phases at equilibrium to obtain the concentrations of the products in each phase.
The partition coefficients (Kp) were calculated for the C9-enal and C10-dial products for equilibrium between the dodecane hydroformylation solvent and the extraction solution phases at 25° C.
The two phases in the flask were heated to and maintained at 53° C. with stirring for 30 minutes to reach equilibrium. The mixture was allowed to separate into 2 layers at 53° C. and each layer was sampled and analyzed as described above. […] The partitioning procedure was repeated at 70° C.

[2] = Extraction and back-extraction with p-diisopropylbenzene or 1,7-octadiene: rhodium concentration in both phases, composition of extraction solution; type: physicochemical
Experimental: Examples […] illustrate yet another embodiment of the process of the present invention wherein extraction solution containing dissolved rhodium is back-extracted with either hydroformylation solvent or olefinic feedstock to reduce the concentration of rhodium in the extraction solution.
The general procedure described in Examples 31-48 was used to extract 60.5 mL of hydroformylation product solution obtained by the hydroformylation of 1,7 octadiene in the presence of a catalyst system comprising rhodium and BISBI phosphine (Reference Example 9). […] The extraction flask was charged with the hydroformylation product solution, 37 mL methanol, 12 mL water and […] [Na] provided as sodium oleate.
For Example 88, the extraction mixture was stirred at room temperature for 30 minutes and then drained into a calibrated, addition funnel and allowed to stand for about five minutes to permit phase separation. The volume of the hydroformylation product solution (organic) phase was 45 mL and the volume of the extraction solution phase was 65 ml. Samples of each phase were taken for rhodium and product composition analyses.
For Example 89, the extraction solution phase separated in Example 88 was added to a clean 250 mL flask along with 30 mL of p-diisopropylbenzene and the mixture was stirred at 50° C. for 30 minutes, was allowed to stand at 50° C. for about 5 minutes to permit phase separation and then each phase was separated and analyzed for composition and rhodium concentration.
For Example 90, the extraction solution separated in Example 89 was added to a clean 250 mL flask along with another 30 mL of p-diisopropylbenzene hydroformylation solvent. The mixture was agitated at 50° C. for thirty minutes, allowed to stand at 50° C. for 5 minutes to permit phase separation and each phase was analyzed for composition and rhodium concentration.
This scheme would be useful in a counter-current extraction method for recycling recovered hydroformylation product solution as well as in using the olefinic feed to the reactor as a back extraction solvent for recovering soluble rhodium from the methanol/water extract.
Example 91 was carried out using the procedure described in Examples 88. The flask was charged with 62 mL of a hydroformylation product solution (Reference Example 10) having a rhodium concentration 166 mg/L and containing 3.01 g of C9-enal, 12.69 g of C10-dial and 37.84 grams of p-diisopropylbenzene. Methanol (37 ml), water (16 ml) and 78 mg Na (as sodium 2-ethylhexanoate) were added to the flask. This mixture was stirred at 50° C. for 30 minutes and then allowed to stand for 5 minutes at 50° C. to permit phase separation. The hydroformylation product solution (organic) phase and the extraction solution phase were both sampled and analyzed for rhodium concentration. The 2 phases were drained into a clean, graduated addition funnel and the volumes of the two phases were measured. The volume of the organic layer was 43 mL and the extraction solution layer was 62 mL.
For Example 92, the extraction solution phase produced in Example 91 was added to a clean, 250 mL flask along with 30 mL of p-diisopropylbenzene and the mixture was stirred at 50° C. for 30 minutes and then allowed to separate into two phases. The two phases were analyzed for rhodium concentration and composition. The mixture was drained into a clean addition funnel to separate the two phases. For Example 93, the extraction solution phase of Example 92 and 30 mL of 1,7-octadiene were added to a clean, 250 mL flask. This mixture was stirred at 50° C. for 30 minutes and then allowed to separate into two phases which were analyzed for rhodium concentration.
The amounts (g) of C9-enal, C10-dial in the sample of hydroformylation product solution initially extracted and in the methanol/water extraction solutions resulting from Examples 91, 92 and 93 are given in Table XIII. The ratio given in Table XIII is the weight ratio of C10-dial:C9-enal. […]

[3] = Example 92, after p-diisopropylbenzene back-extraction
[4] = Example 93, after 1,7-octadiene back-extraction

CCCCC(CC)COC(=O)c1ccccc1C(=O)OCC(CC)CCCC (stereo not drawn) [di-(2-ethylhexyl) phthalate]
Partition Coefficient ([1]; Example 16, Ref. Ex. 23, MeOH:water 3:1, 50° C.): 0.0448
Partition Coefficient ([1]; Example 17, Ref. Ex. 23, MeOH:water 1:1, 50° C.): 0.0037

C1CCC2CCCCC2C1 (stereo not drawn) [decahydronaphthalene]
Partition Coefficient ([1]; Example C-4, Ref. Ex. 17, DEG:water 1:1, 25° C.): 0.0050
Partition Coefficient ([1]; Example C-5, Ref. Ex. 17, DEG:water 1:1, 70° C.): 0.034

c1ccc2c(c1)CCCC2 [tetrahydronaphthalene]
Partition Coefficient ([1]; Example 15, Ref. Ex. 22, MeOH:water 1.5:1, 52° C.): 0.079
Partition Coefficient ([1]; Example C-6, Ref. Ex. 18, DEG:water 3:1, 25° C.): 0.092

isomeric noneneal [C9-enal]
Composition of Extraction Solution (amount) ([2]; Example 91): 1.39 g
Composition of Extraction Solution (amount) [2, 3]: 0.51 g
Composition of Extraction Solution (amount) [2, 4]: 0.18 g

isomeric decanedialdehyde [C10-dial]
Composition of Extraction Solution (amount) ([2]; Example 91): 11.67 g
Weight ratio of C10-dial:C9-enal in extraction solution ([2]; Example 91): 8.40
Weight ratio of C10-dial:C9-enal in extraction solution ([2]; Example 92): 18.06
Composition of Extraction Solution (amount) [2, 3]: 9.21 g
Weight ratio of C10-dial:C9-enal in extraction solution ([2]; Example 93): 33.94
Composition of Extraction Solution (amount) [2, 4]: 6.11 g
